Source: patent publication US9102623B2, “Pyridinecarboxamides, useful-plant-protecting composition comprising them and processes for their preparation and their use” (Bayer Cropscience AG, priority 2007, dated 2015)

Tested on: corn
Experiment: Post-emergence safener action in corn with the herbicide tembotrione
Format: in vivo
Conditions: greenhouse, visual scoring of damage
Text: (§1) The damage to the plants is scored visually using a scale of 0-100%, in comparison to control plants:
(§2) 0%=no noticeable effect compared to the untreated plant
(§3) 100%=the treated plants dies.
(§4) Seeds or rhizome pieces of monocotyledonous and dicotyledonous harmful plants and crop plants are placed in sandy loam soil in plastic pots, covered with soil and cultivated in the greenhouse under good growth conditions. Alternatively, harmful plants encountered in paddy rice cultivation are cultivated in pots in which the surface of the soil is covered by up to 2 cm of water. Three weeks after sowing, the test plants are treated at the three-leaf stage. The herbicide/safener active compound combinations according to the invention, formulated as emulsion concentrates, and in parallel tests the individual active compounds formulated in a corresponding manner, are sprayed at various dosages at a water application rate of […] (converted) onto the green parts of the plants, and, after the test plants were left to stand in the greenhouse for about 2 to 3 weeks under optimum growth conditions, the effect of the preparations is scored visually in comparison to untreated controls. In the case of rice or harmful plants encountered in the cultivation of rice, the active compounds are also added directly to the irrigation water (application analogously to the so-called granule application) or sprayed onto the plants and into the irrigation water. […]

Compound	safener action for the herbicide tembotrione
CCC(CC)NC(=O)c1ccc(C(F)(F)F)[nH]c1=O [Compound 51]	good safener action
COC(=O)CCNC(=O)c1ccc(C(F)(F)F)[nH]c1=O [Compound 75]	good safener action
CC(C)NC(=O)c1ccc(C(F)(F)F)[nH]c1=O [Compound 4]	good safener action
CCCC(C)NC(=O)c1ccc(C(F)(F)F)[nH]c1=O (stereo not drawn) [Compound 43]	good safener action
CC(C)CCNC(=O)c1ccc(C(F)(F)F)[nH]c1=O [Compound 32]	good safener action
COC(=O)CNC(=O)c1ccc(C(F)(F)F)[nH]c1=O [Compound 71]	good safener action
CNC(=O)c1cc(Cl)c(C(F)(F)F)[nH]c1=O [Compound 456]	good safener action
O=C(NC1CCC1)c1cc(Br)c(C(F)(F)C(F)(F)C(F)(F)F)[nH]c1=O [Compound 1758]	good safener action
CNC(=O)c1ccc(C(F)(F)C(F)(F)C(F)(F)F)[nH]c1=O [Compound 1596]	good safener action
CC(C)NC(=O)c1ccc(C(F)(F)Cl)[nH]c1=O [Compound 118]	good safener action

Tested on: barley
Experiment: Post-emergence safener action in barley with the herbicide mesosulfuron-methyl
Format: in vivo
Conditions: greenhouse, visual scoring of damage
Text: as §1, §2, §3, §4

Compound	safener action for the herbicide mesosulfuron-methyl
CCCC(C)NC(=O)c1ccc(C(F)(F)C(F)(F)F)[nH]c1=O (stereo not drawn) [Compound 384]	good safener action
CNC(=O)c1ccc(C(F)(F)F)[nH]c1=O [Compound 1]	good safener action
O=C(NCC1CC1)c1ccc(C(F)(F)Cl)[nH]c1=O [Compound 136]	good safener action
CCC(CC)NC(=O)c1cc(I)c(C(F)(F)Cl)[nH]c1=O [Compound 1907, 6-[Chloro(difluoro)methyl]-N-(1-ethylpropyl)-5-iodo-2-oxo-1,2-dihydropyridine-3-carboxamide]	good safener action
CCCCCNC(=O)c1ccc(C(F)(F)Cl)[nH]c1=O [Compound 134]	good safener action
CCC(CC)NC(=O)c1ccc(C(F)(F)Cl)[nH]c1=O [Compound 165]	good safener action
CC(C)(C)CNC(=O)c1ccc(C(F)(F)Cl)[nH]c1=O [Compound 138]	good safener action
COCC(C)NC(=O)c1ccc(C(F)(F)C(F)(F)F)[nH]c1=O (stereo not drawn) [Compound 405]	good safener action
CCN(C)C(=O)c1ccc(C(F)(F)Cl)[nH]c1=O [Compound 124]	good safener action
C#CCN(C)C(=O)c1ccc(C(F)(F)Cl)[nH]c1=O [Compound 154]	good safener action
CC(C)C(C)NC(=O)c1ccc(C(F)(F)Cl)[nH]c1=O (stereo not drawn) [Compound 163]	good safener action
C#CCN(C)C(=O)c1ccc(C(F)(F)F)[nH]c1=O [Compound 40]	good safener action
COCCNC(=O)c1ccc(C(F)(F)Cl)[nH]c1=O [Compound 171, 6-[Chloro(difluoro)methyl]-N-(2-methoxyethyl)-2-oxo-1,2-dihydropyridine-3-carboxamide]	good safener action
CN(C)C(=O)c1ccc(C(F)(F)Cl)[nH]c1=O [Compound 123]	good safener action
COCCNC(=O)c1ccc(C(F)(F)C(F)(F)F)[nH]c1=O [Compound 398]	good safener action
O=C(NC1CCC1)c1ccc(C(F)(F)F)[nH]c1=O [Compound 7, N-Cyclobutyl-2-oxo-6-(trifluoromethyl)-1,2-dihydropyridine-3-carboxamide]	good safener action
O=C(NCC(F)(F)C(F)(F)F)c1ccc(C(F)(F)F)[nH]c1=O [Compound 25]	good safener action
CCCC(C)NC(=O)c1ccc(C(F)(F)Cl)[nH]c1=O (stereo not drawn) [Compound 157]	good safener action
CCNC(=O)c1cc(Cl)c(C(F)(F)Cl)[nH]c1=O [Compound 571]	good safener action
CNC(=O)c1ccc(C(F)(F)C(F)(F)F)[nH]c1=O [Compound 342]	good safener action
CCCCNC(=O)c1cc(Br)c(C(F)(F)Cl)[nH]c1=O [Compound 1029]	good safener action
CC(C)CNC(=O)c1ccc(C(F)(F)F)[nH]c1=O [Compound 30]	good safener action
CCC(C)NC(=O)c1cc(Br)c(C(F)(F)F)[nH]c1=O (stereo not drawn) [Compound 950]	good safener action
O=C(NC1CC1)c1ccc(C(F)(F)Cl)[nH]c1=O [Compound 119]	good safener action

Compound	safener action for the herbicide mesosulfuron-methyl
O=C(NCC(F)(F)F)c1ccc(C(F)(F)F)[nH]c1=O [Compound 26]	good safener action
CC(C)N(C)C(=O)c1ccc(C(F)(F)F)[nH]c1=O [Compound 13]	good safener action
O=C(NCC1CC1)c1ccc(C(F)(F)F)[nH]c1=O [Compound 22]	good safener action
O=C(NC1CCC1)c1cc(Br)c(C(F)(F)Cl)[nH]c1=O [Compound 1030]	good safener action
CCCNC(=O)c1ccc(C(F)(F)C(F)(F)F)[nH]c1=O [Compound 344]	good safener action
CNC(=O)c1cc(Br)c(C(F)(F)F)[nH]c1=O [Compound 910]	good safener action
NC(=O)c1cc(Br)c(C(F)(F)Cl)[nH]c1=O [Compound 1023]	good safener action
CCC(C)NC(=O)c1ccc(C(F)(F)C(F)(F)F)[nH]c1=O (stereo not drawn) [Compound 382, N-(1-Methylpropyl)-2-oxo-6-(pentafluoroethyl)-1,2-dihydropyridine-3-carboxamide]	good safener action
CCN(C(=O)c1ccc(C(F)(F)Cl)[nH]c1=O)C(C)C [Compound 130]	good safener action
CCCCNC(=O)c1ccc(C(F)(F)C(F)(F)Cl)[nH]c1=O [Compound 1487]	good safener action
CNC(=O)c1ccc(C(F)(F)Cl)[nH]c1=O [Compound 115]	good safener action
CCNC(=O)c1ccc(C(F)(F)Cl)[nH]c1=O [Compound 116]	good safener action
NC(=O)c1ccc(C(F)(F)C(F)(F)Cl)[nH]c1=O [Compound 1481, 6-(2-Chloro-1,1,2,2-tetrafluoroethyl)-2-oxo-1,2-dihydropyridine-3-carboxamide]	good safener action
O=C(NC1CC1)c1ccc(C(F)(F)F)[nH]c1=O [Compound 5]	good safener action
CCN(CC)C(=O)c1ccc(C(F)(F)Cl)[nH]c1=O [Compound 128]	good safener action
CCCNC(=O)c1ccc(C(F)(F)F)[nH]c1=O [Compound 3]	good safener action
COCCNC(=O)c1ccc(C(F)(F)F)[nH]c1=O [Compound 57]	good safener action
O=C(NC1CC1)c1ccc(C(F)(F)C(F)(F)F)[nH]c1=O [Compound 346]	good safener action
COCC(C)NC(=O)c1cc(Br)c(C(F)F)[nH]c1=O (stereo not drawn) [Compound 1201, 5-Bromo-6-(difluoromethyl)-N-(2-methoxy-1-methylethyl)-2-oxo-1,2-dihydropyridine-3-carboxamide]	good safener action
COC(CNC(=O)c1ccc(C(F)(F)Cl)[nH]c1=O)OC [Compound 168]	good safener action
CCCNC(=O)c1ccc(C(F)(F)Cl)[nH]c1=O [Compound 117]	good safener action
COCCCNC(=O)c1ccc(C(F)(F)C(F)(F)F)[nH]c1=O [Compound 407]	good safener action
NC(=O)c1cc(Cl)c(C(F)(F)F)[nH]c1=O [Compound 455, 5-Chloro-2-oxo-6-(trifluoromethyl)-1,2-dihydropyridine-3-carboxamide]	good safener action
